Measured values: US20080194467A1, “CANCER TREATMENT METHODS USING CADHERIN ANTAGONISTS IN COMBINATION WITH ANTICANCER AGENTS” (ADHEREX TECHNOLOGIES, INC., priority 2006, published 2008)
Like-named read-outs stand apart in the source and are kept apart here. Bridge positions count the residues as written; N and C are the ends.

Legend:
[1] = tested on: human melanoma xenografts (DM366 and DM738); test: Isolated limb infusion (ILI) of melphalan with or without systemic ADH-1 in nude rats bearing human melanoma xenografts; type: in vivo; settings: day 60 after 15 minute regional infusion into the hind limb
[2] = tested on: human melanoma cell line DM738; type: in vivo
[3] = tested on: Ovarian Tumor Cell Line A2780; settings: paclitaxel 30 mg/kg i.v. qodx5; ADH-1 100 mg/kg i.p. Day 1 then b.i.d.x20
Experimental: In this set of experiments, 100 mg/kg of ADH-1 was administered i.p. as a single dose on Day 1 and then […].) for the duration of the treatment period. 30 mg/kg paclitaxel was administered i.v. on a qodx5 schedule starting on Day 2. For the combination groups, paclitaxel was always administered 5 minutes after the morning ADH-1 dose.

A375 tumors = test: In vivo combination therapy of A375 tumors, ADH-1 with temozolomide; settings: ADH-1 100 mg/kg i.p. qdx8; TMZ 100 mg/kg p.o. qdx5; administered separately
Experimental: 100 mg/kg of TMZ was administered p.o. on a qdx5 schedule starting on Day 4. For the combination groups, TMZ was always administered 1 hour after the ADH-1 dose. A375 tumors were resistant to both TMZ and ADH-1 when administered separately.

N[C@@H](Cc1ccc(N(CCCl)CCCl)cc1)C(=O)O [melphalan]
increase in tumor volume [1]: 439.4%
anti-tumor response ([2]; rat, in vivo): no detectable anti-tumor response

CC(=O)O[C@H]1C(=O)[C@@]2(C)[C@H]([C@H](OC(=O)c3ccccc3)[C@]3(O)C[C@H](OC(=O)[C@H](O)[C@@H](NC(=O)c4ccccc4)c4ccccc4)C(C)=C1C3(C)C)[C@]1(OC(C)=O)CO[C@@H]1C[C@@H]2O [paclitaxel]
complete cures out of 10 animals [3]: 10%
delay in tumor growth [3]: transient delay in tumor growth

N—Ac-CHAVC-NH2 (disulfide 1-5 (inferred)) [ADH-1]
tumor response to treatment (resistance) (A375 tumors): resistant
anti-tumor response ([2]; DM738 tumors, single ILI of melphalan and/or systemic ADH-1, compared to vehicle control): no detectable anti-tumor response
